# Laboratory results from patent US20230345940A1, “INSECTICIDE” (Western Sydney University, priority 2020, published 2023).
# Read-outs that look alike come from different tables or passages of the source.
# Assays:
# Format in all cases: in vivo
# [1] = test system: neonate Helicoverpa armigera; experiment: Potter spray tower bioassay on leaf discs, Helicoverpa neonates; conditions: 1.0% w/v; for mortality at 1 % strength: Helicoverpa armigera, foliar
# Description: Helicoverpa armigera (Hubner) (Lepidoptera: Noctuidae), commonly known as the cotton bollworm or as heliothis, is a widespread species, with an extensive host range (see, e.g., https://www.cabi.org/isc/datasheet/26757). It typically feeds selectively on high protein plant parts, such as flowers, buds and fruits. Helicoverpa armigera was obtained as fresh eggs from AgBiTech Pty. Ltd, Glenvale QLD, Australia, or CSIRO Agriculture and Food, Cotton Research Institute, Myall Vale NSW, Australia.
# Eggs (50-75) were transferred with a fine camel hair brush onto 90 mm Whatman No. 1 filter paper partially moistened with distilled water and thin slices from the artificial medium supplied by AgBiTech were placed on the filter paper as a source of food for the hatching caterpillars. The eggs were left to hatch under laboratory conditions of 25±3° C. and 65±10% RH. Hatching occurred within 24 h and bioassays were carried out on neonate larvae with an average weight of […].
# For Helicoverpa, neonate larvae 4-12 h after hatching were transferred individually to a cotton plant leaf disc (35 mm diameter) mounted with its lower side uppermost on 1% agar in an Easy Grip Tissue Culture Dish dimensions 35×10 mm (Corning Incorporated, Corning NY, USA). […] Thus, each replicate comprised 4 neonates.
# Following spraying, the small dishes were covered with a perforated plastic sheet and then placed in plastic insect cages previously described for aphid bioassays. The number of dishes sprayed per sample was 4-10. Dishes were retained under laboratory conditions (24±2° C., 50±15% RH) for post-treatment observations. Mortality counts were conducted at 24 and 48 HAT. Absence of the caterpillar movement when prodded with a fine brush was taken as the criterion of death.
# (§1) For each batch of investigations, control treatments were conducted, with methodology identical to other treatments. The control treatment solutions comprised 3 mL aliquots of 200 ppm Triton X-100 in distilled water and acetone or hexane at the same concentration as the test solutions. Investigations were discarded if control mortality exceeded 15%. Treatment mortality was calculated and is presented as corrected mortality, to account for any control mortality (Abbott WS., A method of computing the effectiveness of an insecticide. Journal of Economic Entomology, 18, 265-267, 1925).
# [2] = test system: two-spotted spider mite (TSM), Tetranychus urticae Koch; experiment: Potter spray tower bioassay on leaf discs, two-spotted spider mite; conditions: 1.0% w/v; for mortality at 1 % strength: Tetranychus urticae, foliar
# Description: Tetranychus urticae Koch, (Acari: Tetranychidae), commonly known as two-spotted spider mite is a cosmopolitan, phytophagous species, and an important agricultural pest in many temperate and sub-tropical countries. It is highly polyphagous, and feeds primarily on plant foliage. Tetranychus urticae Koch UWS 1 (organophosphate-susceptible) strain, originally obtained from Dr Grant Herron, NSW
# Department of Primary Industries, Menangle NSW, Australia, but had been maintained at WSU Hawkesbury campus for approximately 18 years. They were reared on potted French beans, Phaseolus vulgaris var Redland Pioneer (in a constant temperature room maintained at 25±2° C., 65±5% RH and 14 h D: L photoperiod. The culture was reared on potted dwarf French bean (Phaseolus vulgaris L. var. Redland Pioneer) plants grown in a composted pinebark-based potting medium in a large (7.0 m (1)×6.0 m (w)×4.0 m (h)), pesticide-free, constant temperature room (28-30° C., 50% RH, 18:6, D:L). Only young gravid female two-spotted mites were selected for bioassay.
# For the two-spotted spider mite, screening of each sample was conducted on 20-40 adult female mites, which were evenly distributed on 1-3 French bean leaf discs (25 mm diam.) contained in 90 mm diameter Petri dishes. The leaf discs were placed with their underside uppermost on moist absorbent cotton wool. Water was added to the dishes daily to prevent desiccation of the leaf discs and preventing the mites from escaping the leaf disc.
# A 3.0 mL aliquot was applied to each Petri dish with a Potter precision spray tower as described by Herron et al., Potter spray tower bioassay of selected citrus pests to petroleum spray oil, Journal of the Australian Entomological Society 34, 253-263, 1995.
# The average weight of the solution sprayed on each dish was calculated to be 5.385 mg/cm^2 or 0.05385 mg/cm^2 active ingredient (a.i.). Dishes were retained under laboratory conditions (24±2° C., 50±15% RH) for post-treatment observations. Mortality was recorded 24 h and 48 h after treatment (HAT). Death was recognised by the absence of movement when the test organisms were mechanically stimulated by prodding with a brush.
# as §1
# [3] = test system: cotton aphid, Aphis gossypii; experiment: Potter spray tower bioassay on leaf discs, cotton aphid; conditions: 1.0% w/v
# Description: Aphis gossypii (susceptible strain) (Hemiptera: Aphididae), was established as a culture from material supplied by Dr Grant Herron, NSW Department of Primary Industries, Menangle NSW, Australia. Aphids were reared on potted Gossypium hirsutum L. (Malvaceae) grown from non-insecticide-treated conventional cotton seed, supplied by Dr Robert Mensah, NSW Department of Primary Industries, Narrabri NSW, Australia. The culture was maintained in a temperature-controlled greenhouse chamber set at 27±3° C. and 55±10% RH (relative humidity) and natural light. Only young adult females were selected for bioassay.
# For the cotton aphid, parthenogenetic adult female aphids were collected from the cultures on cotton plants. Fifteen adults were transferred using a fine camel hair brush onto the lower side of a respective leaf disc 50 mm diameter mounted on 1.0% w/v agar in a plastic insect cage measuring 50 mm diameter×15 mm height plastic insect breeding 50 mm diameter×15 height (SPL Life Sciences, Korea).
# Aliquots (3 mL) of the 1% w/v extracts were applied with a Potter Spray Tower for each treatment, as described above, and the spray was allowed to partially dry before the cage was covered with its lid and the sides of the cage sealed with Parafilm M®.
# Dishes were retained under laboratory conditions (24±2° C., 50±15% RH) for post-treatment observations. […]
Molecule,mortality at 1 % strength ([1]; read-out: Corrected percentage mortality Helicoverpa 24 HAT) [%],mortality at 1 % strength ([1]; read-out: Corrected percentage mortality Helicoverpa 48 HAT) [%],mortality at 1 % strength ([2]; read-out: Corrected percentage mortality TSM 24 HAT) [%],mortality at 1 % strength ([2]; read-out: Corrected percentage mortality TSM 48 HAT) [%],Corrected percentage mortality Helicoverpa 24 HAT [1] [%],Corrected percentage mortality Helicoverpa 48 HAT [1] [%],Corrected percentage mortality Cotton aphid 24 HAT [3] [%],Corrected percentage mortality TSM 24 HAT [2] [%],Corrected percentage mortality TSM 48 HAT [2] [%]
"CCc1c(OC)oc(CCCCCCCCCC(C)=O)c(C)c1=O [Fraction 42, 10′-oxopodopyrone]",0,0,100,100,–,–,–,–,–
10′-oxo-8-methyl podopyrone [Fraction 44],–,–,–,–,100.0,100.0,100.0,100.0,100.0
